Results on 9 compounds are retold here after patent publication US9573913B2, “Cathepsin cysteine protease inhibitors” (Merck Sharp & Dohme Corp., priority 2013, dated 2017).

A value given as a limit tells only on which side of the number the result lay.

One assay has as its target T1, human cathepsin F (Homo sapiens, UniProt Q9UBX1).
T1 sequence (Q9UBX1 271-484): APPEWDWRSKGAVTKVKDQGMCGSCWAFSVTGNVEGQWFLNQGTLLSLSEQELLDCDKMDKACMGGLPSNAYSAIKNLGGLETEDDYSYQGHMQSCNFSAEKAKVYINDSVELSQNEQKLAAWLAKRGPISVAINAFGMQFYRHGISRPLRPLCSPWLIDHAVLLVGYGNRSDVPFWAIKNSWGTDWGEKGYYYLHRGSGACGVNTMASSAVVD
In words: Cathepsin F assay (hCat F). Conditions: Z-Phe-Arg-AMC substrate, pH 5.5, 15 min preincubation; read-out: hCat F (IP (nM)). It is filed as biochemical. Summed up:
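AMC release from Z-Phe-Arg-AMC, added at 8 μM, was monitored fluorometrically (360/460 nm) for 20 min after 10 nM enzyme and compound had been preincubated 15 min at room temperature. Buffer: MES 50 mM pH 5.5, EDTA and DTT 2.5 mM each, 10% DMSO. Compound DMSO dilutions spanned 500–0.025 μM (3-fold). Dose-response fitting gave % inhibition.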

A further assay concerns the target human cathepsin K (UniProt P43236). Put plainly: Cathepsin K Assay (hrbCat K). In kind it is biochemical. Particulars: Z-Leu-Arg-AMC substrate, pH 5.5, 15 min preincubation; read-out: hrbCat K (IP (nM)). Summed up: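 Human cathepsin K (0.4 nM) was preincubated 15 min at room temperature with compound in 50 mM MES pH 5.5, 2.5 mM EDTA, 2.5 mM DTT and 10% DMSO. Inhibition was fitted to a dose-response model.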

For the compound `N#CC1(NC(=O)[C@@H]2CCCC[C@H]2c2nc(-c3ccon3)sc2-c2ccc(N3CCS(=O)(=O)CC3)cc2)CC1` [Example 39, (1R,2R)-N-(1-cyanocyclopropyl)-2-(5-(4-(1,1-dioxidothiomorpho-lino)phenyl)-2-(isoxazol-3-yl)thiazol-4-yl)cyclohexane-carboxamide], the IC50 at human cathepsin F was 1360 nM; at human cathepsin K, 1 nM.

In the case of `Cc1nc([C@@H]2CC[C@H](F)C[C@H]2C(=O)N[C@@H](C)C#N)c(-c2ccc(N3CCC(C)(O)CC3)cc2)s1` [Example 241, (1R,2R,5S)-N-((S)-1-cyanoethyl)-5-fluoro-2-(5-(4-(4-hydroxy-4-methylpiperidin-1-yl)phenyl)-2-methylthiazol-4-yl)cyclohexane-carboxamide], the IC50 at human cathepsin F is at least 10000 nM; at human cathepsin K, 34.9 nM.

In the case of `N#CC1(NC(=O)[C@@H]2CC3CC3C[C@H]2c2nc(-c3cncc(F)c3)sc2-c2ccc(N3CCS(=O)(=O)CC3)cc2)CC1` (single isomer, unassigned) [Compound 4, (1R or 1S,3R,4R,6S or 6R)-N-(1-Cyanocyclopropyl)-4-(5-(4-(1,1-dioxidothiomorpholino)phenyl)-2-(5-fluoropyridin-3-yl)thiazol-4-yl)bicyclo[4.1.0]heptane-3-carboxamide], the values for the IC50 on human cathepsin F and at human cathepsin K were 439 nM and 0.9 nM, respectively.

Take `N#CC1(NC(=O)[C@@H]2CCCC[C@H]2c2nc(-c3ccc(F)cc3)sc2-c2ccc(C(=O)N3CCOCC3)cc2)CC1` [Example 32, (1R,2R)-N-(1-cyanocyclopropyl)-2-(2-(4-fluorophenyl)-5-(4-(morpholine-4-carbonyl)phenyl)thi-azol-4-yl)cyclohexane-carboxamide]: the IC50 was determined as 422 nM on human cathepsin F and 65.1 nM on human cathepsin K.

In the case of `COc1ccccc1-c1nc([C@@H]2CCCC[C@H]2C(=O)NC2(C#N)CC2)c(-c2ccc(N3CCS(=O)(=O)CC3)cc2)s1` [Example 54, (1R,2R)-N-(1-cyanocyclopropyl)-2-(5-(4-(1,1-dioxidothiomorpho-lino)phenyl)-2-(2-methoxyphenyl)thi-azol-4-yl)cyclohexane-carboxamide], the results for the IC50 on human cathepsin F and on human cathepsin K were 1000 nM and 2.1 nM, respectively.

For `N#CC1(NC(=O)[C@@H]2CC(F)(F)CC[C@H]2c2nc(-c3cccnc3)sc2-c2ccc(N3CCS(=O)(=O)CC3)cc2)CC1` [Example 49, (1R,2R)-N-(1-cyanocyclopropyl)-2-(5-(4-(1,1-dioxidothiomorpho-lino)phenyl)-2-(pyridin-3-yl)thiazol-4-yl)-5,5-difluorocyclohexane-carboxamide], the IC50 came out at 49 nM on human cathepsin F and 0.5 nM on human cathepsin K.

For `Cc1ccc(-c2nc([C@@H]3CC[C@H](F)C[C@H]3C(=O)NC3(C#N)CC3)c(-c3ccc(N4CCC(S(C)(=O)=O)CC4)cc3)s2)nn1` [Example 223, (1R,2R,5S)-N-(1-cyanocyclopropyl)-5-fluoro-2-(2-(6-methylpyridazin-3-yl)-5-(4-(4-(methylsulfonyl)piperidin-1-yl)phenyl)thiazol-4-yl)cyclohexane-carboxamide], the IC50 on human cathepsin F turned out to be 2230 nM; on human cathepsin K, 2.9 nM.

In the case of `CC(C#N)NC(=O)[C@@H]1C[C@@H](F)CC[C@H]1c1nc(-c2cncc(F)c2)sc1-c1ccc(N2CCS(=O)(=O)CC2)cc1` (single isomer, unassigned) [Example 126, (1R,2R,5S)-N-((S or R)-1-cyanoethyl)-2-(5-(4-(1,1-dioxidothiomorpho-lino)phenyl)-2-(5-fluoropyridin-3-yl)thiazol-4-yl)-5-fluorocyclohexane-carboxamide], the IC50 at human cathepsin F was 1760 nM; at human cathepsin K, 1.7 nM.

As to `Cc1ccc(-c2nc([C@@H]3CCCC[C@H]3C(=O)NC3(C#N)CC3)c(-c3ccc(N4CCS(=O)(=O)CC4)cc3)s2)c(C#N)c1` [Example 67, (1R,2R)-2-(2-(2-cyano-4-methylphenyl)-5-(4-(1,1-dioxidothiomorpho-lino)phenyl)thiazol-4-yl)-N-(1-cyanocyclopropyl) cyclohexanecarbox-amide], the IC50 at human cathepsin F was at least 10000 nM; on human cathepsin K, 5.8 nM.
